Results taken from EP0286926A2, “Semi-synthetic rhodomycins, method for their preparation and their use as cytostatics” (BEHRINGWERKE Aktiengesellschaft, priority 1987, dated 1988).
In brackets after ≈: the same amount, converted by molar mass. Read-outs that look alike come from different tables or passages of the source.

Tested on: L1210 Leukämiezellen
Experiment: Colony formation of L1210 leukemia cells in soft agar
Type: cell-based, Maus
Conditions: for IC50: Mus musculus; for zytostatische Wirksamkeit: statement in words, compared with Adriamycin
Excerpt: Die zytostatische Wirksamkeit der erfindungsgemäßen Verbindungen wurde anhand von L1210 Leukämiezellen der Maus getestet. Hierzu wurde die Koloniebildung von L1210 Leukämiezellen in Agarplatten herangezogen. Diese Methode dient zum Nachweis des Einflusses der Testsubstanzen auf das Wachstumsverhalten der Zellen nach Inkubation von 1 Stunde oder über mehrere Generationen. Bei einer Zelzykluszeit von 10-12 Stunden werden dabei in der Testzeit von 7 Tagen etwa 14 aufeinanderfolgende Generationen beobachtet. Die erfindungsgemäßen zytostatisch wirksamen Substanzen bewirken in diesem Test eine Reduktion der zu beobachtenden Koloniezahl gegenüber einer unbehandelten Kontrollprobe.
Einzelheiten des Testverfahrens ergeben sich aus der nachfolgenden Verfahrensweise zur Ermittlung der Koloniebildung.
Verfahrensweise zur Ermittlung der Koloniebildung von L1210 Leukämiezellen in Soft-Agar
500 Leukämiezellen pro Platte wurden mit unterschiedlichen Konzentrationen der Testsubstanz 1 Stunde bei 37°C inkubiert. Anschließend wurden die Zellen zweimal mit McCoy5A-Medium gewaschen und schließlich in Petrischalen nach Zugabe von 0,3 % Agar ausgegossen. Kontrollen wurden lediglich mit frischem Medium inkubiert. Anstelle der einstündigen Inkubation wurden in manchen Fällen unterschiedliche Konzentrationen und Testsubstanzen der oberen Agarschicht zugemischt, um so eine kontinuierliche Exposition der Zellen über die gesamte Inkubationszeit zu erreichen. Nach Erstarren des Agars wurden die Platten im Brutschrank 7 Tage bei 37°C inkubiert (5 Vol.-% CO₂, 94 % relative Luftfeuchtigkeit). Anschließend wurde die Zahl der entstandenen Kolonien mit einem Durchmesser von mehr als 60 µm gezählt. Die Ergebnisse wurden angegeben als Koloniezahl in behandelten Agarplatten in Prozent der unbehandelten Kontrolle. Aus der so erhaltenen Dosiswirkungskruve wurde die IC₅₀ als Maß für die Wirksamkeit der Substanz ermittelt. Die Ergebnisse für die hier beschriebenen Verbindungen im Vergleich zu Adriamycin sind in der nachfolgenden Tabelle 1 zusammengefaßt.

[1] = L1210, read-out: 1h-Inkubation IC50
[2] = L1210, 168 h, read-out: Dauerinkubation IC50
[3] = L1210, 168 h, continuous exposure: substance mixed into upper agar layer for the whole 7-day incubation at 37°C, colonies > 60 µm counted, percent of untreated control, read-out: Dauerinkubation IC50
[4] = L1210, 1 h incubation with substance at 37°C, cells washed twice, then plated in 0,3 % agar for 7 days, colonies > 60 µm counted, read-out: 1h-Inkubation IC50
[5] = 1 h incubation with substance at 37°C, cells washed twice, then plated in 0,3 % agar for 7 days, colonies > 60 µm counted
[6] = continuous exposure: substance mixed into upper agar layer for the whole 7-day incubation at 37°C, colonies > 60 µm counted, percent of untreated control

CC[C@@]1(O[C@H]2C[C@H](N)[C@@H](O)[C@H](C)O2)C[C@H](O[C@H]2C[C@H](N)[C@@H](O)[C@H](C)O2)c2c(O)c3c(c(O)c2[C@H]1O[C@H]1C[C@H](N)[C@@H](O)[C@H](C)O1)C(=O)c1cccc(O)c1C3=O [Beispiel 44, 7,9,10-Tri-O-α-L-acosaminyl-β-rhodomycinon]
IC50 [1]: > 1 µg/mL

CC[C@@]1(O)C[C@H](O[C@H]2C[C@H](N(C)C)[C@@H](O)[C@H](C)O2)c2c(O)c3c(c(O)c2[C@H]1O)C(=O)c1cccc(O)c1C3=O [Beispiel 16, 7-0-(3-N,N-Dimethyl-α-L-acosaminyl)-β-rhodomycinon]
IC50 [2]: 0.006 µg/mL (≈ 0.011 µM) | IC50 [1]: 0.02 µg/mL (≈ 0.0368 µM) | zytostatische Wirksamkeit: vergleichbar

CC[C@@]1(O)C[C@H](O[C@H]2C[C@H](N)C[C@H](C)O2)c2c(O)c3c(c(O)c2[C@H]1O)C(=O)c1cccc(O)c1C3=O [Beispiel 53, 7-O-(4-Desoxy-α-L-daunosaminyl)-β-rhodomycinon]
IC50 [3]: 0.04 µg/mL (≈ 0.0801 µM) | IC50 [4]: 0.05 µg/mL (≈ 0.1 µM)

CC[C@@]1(O)C[C@H](O[C@H]2C[C@H](N)[C@@H](OCc3ccccc3)[C@H](C)O2)c2c(O)c3c(c(O)c2[C@H]1O[C@H]1C[C@H](N)[C@@H](OCc2ccccc2)[C@H](C)O1)C(=O)c1cccc(O)c1C3=O [Beispiel 51, 7,10-Di-O-(4-O-Benzyl-α-L-acosaminyl)-β-rhodomycinon]
IC50 [3]: 0.4 µg/mL (≈ 0.485 µM) | IC50 [4]: 0.68 µg/mL (≈ 0.824 µM)

CC[C@@]1(O)C[C@H](O[C@H]2C[C@H](N)[C@H](O)[C@H](C)O2)c2c(O)c3c(c(O)c2[C@H]1OC1CCCCO1)C(=O)c1cccc(O)c1C3=O (stereo partly drawn) [Beispiel 21, 7-O-α-L-Daunosaminyl-10-O-tetrahydropyranyl-β-rhodomycinon]
1h-Inkubation IC50 [5]: >1 µg/mL | Dauerinkubation IC50 [6]: 0.5 µg/mL

CC[C@@]1(O)C[C@H](O[C@H]2C[C@H](NC(=O)C(F)(F)F)[C@H](OC(=O)c3ccc([N+](=O)[O-])cc3)[C@H](C)O2)c2c(O)c3c(c(O)c2[C@H]1O)C(=O)c1cccc(O)c1C3=O [Beispiel 19, 7-O-(4-O-Paranitrobenzoyl-3-N-trifluoracetyl-α-L-daunosaminyl)-β-rhodomycinon]
IC50 [3]: 0.11 µg/mL (≈ 0.145 µM) | IC50 [4]: > 1 µg/mL

CC[C@@]1(O)C[C@H](O[C@H]2C[C@H](N)[C@@H](O)[C@H](C)O2)c2c(O)c3c(c(O)c2[C@H]1O[C@H]1C[C@H](N)[C@@H](O)[C@H](C)O1)C(=O)c1cccc(O)c1C3=O [Beispiel 33, 7,10-Di-O-α-L-acosaminyl-β-rhodomycinon]
IC50 [3]: > 1 µg/mL | IC50 [4]: > 1 µg/mL

CC[C@@]1(O)C[C@H](O[C@H]2C[C@H](NC(=O)C(F)(F)F)[C@H](OC(C)=O)[C@H](C)O2)c2c(O)c3c(c(O)c2[C@H]1O[C@H]1C[C@H](NC(=O)C(F)(F)F)[C@H](OC(C)=O)[C@H](C)O1)C(=O)c1cccc(O)c1C3=O [Beispiel 28, 7,10-Di-O-(4-O-acetyl-3-N-trifluoracetyl-α-L-daunosaminyl)-β-rhodomycinon]
IC50 [3]: > 1 µg/mL | IC50 [4]: > 1 µg/mL

CC[C@@]1(O)C[C@H](O[C@H]2C[C@H](N)[C@H](O)[C@H](C)O2)c2c(O)c3c(c(O)c2[C@H]1O[C@H]1C[C@H](N)[C@H](O)[C@H](C)O1)C(=O)c1cccc(O)c1C3=O [Beispiel 29, 7,10-Di-O-α-L-daunosaminyl-β-rhodomycinon]
IC50 [3]: > 10 µg/mL | IC50 [4]: > 1 µg/mL

CC[C@@]1(O)C[C@H](O[C@@H]2O[C@@H](C)[C@H](O)[C@@H](O)[C@H]2I)c2c(O)c3c(c(O)c2[C@H]1O)C(=O)c1cccc(O)c1C3=O [Beispiel 50, 7-O-(2,6-Didesoxy-2-iodo-α-L-mannopyranosyl)-β-rhodomycinon]
IC50 [3]: 0.1 µg/mL (≈ 0.156 µM)

CC[C@@]1(O)C[C@H](O[C@H]2C[C@H](N)[C@@H](O)[C@H](C)O2)c2c(O)c3c(c(O)c2[C@H]1O)C(=O)c1cccc(O)c1C3=O [Beispiel 15, 7-0-α-L-Acosaminyl-β-rhodomycinon]
IC50 [3]: 0.004 µg/mL (≈ 0.00776 µM) | IC50 [4]: 0.02 µg/mL (≈ 0.0388 µM) | zytostatische Wirksamkeit: vergleichbar

CC[C@@]1(O)C[C@H](O[C@H]2C[C@H](NC(=O)C(F)(F)F)[C@@H](OC(=O)c3ccc([N+](=O)[O-])cc3)[C@H](C)O2)c2c(O)c3c(c(O)c2[C@H]1O)C(=O)c1cccc(O)c1C3=O [Beispiel 14, 7-0-(4-0-Paranitrobenzoyl-3-N-trifluoracetyl-α-L-acosaminyl)-β-rhodomycinon]
IC50 [3]: 0.024 µg/mL (≈ 0.0316 µM) | IC50 [4]: > 1 µg/mL

CC[C@@]1(O)C[C@H](O[C@H]2C[C@H](N(C)C)[C@@H](O)[C@H](C)O2)c2c(O)c3c(c(O)c2[C@H]1O[C@H]1C[C@H](N(C)C)[C@@H](O)[C@H](C)O1)C(=O)c1cccc(O)c1C3=O [Beispiel 34]
IC50 [2]: 0.026 µg/mL (≈ 0.0371 µM) | IC50 [1]: 0.09 µg/mL (≈ 0.128 µM)

CC[C@@]1(O)C[C@H](O)c2c(O)c3c(c(O)c2[C@H]1O[C@H]1C[C@H](N)[C@@H](O)[C@H](C)O1)C(=O)c1cccc(O)c1C3=O [Beispiel 10, 10-0-α-L-Acosaminyl-β-rhodomycinon]
IC50 [3]: 0.9 µg/mL (≈ 1.75 µM) | IC50 [4]: 6.5 µg/mL (≈ 12.6 µM)

CC[C@@]1(O)C[C@H](O)c2c(O)c3c(c(O)c2[C@H]1O[C@H]1C[C@H](N(C)C)[C@@H](O)[C@H](C)O1)C(=O)c1cccc(O)c1C3=O [Beispiel 12, 10-0-(3-N,N-Dimethyl-α-L-acosaminyl)-β-rhodomycinon]
IC50 [3]: 0.5 µg/mL (≈ 0.92 µM) | IC50 [4]: > 1 µg/mL

CC[C@@]1(O)C[C@H](O[C@@H]2O[C@@H](C)[C@H](OC(C)=O)[C@@H](OC(C)=O)[C@H]2I)c2c(O)c3c(c(O)c2[C@H]1OC1CCCCO1)C(=O)c1cccc(O)c1C3=O (stereo partly drawn) [Beispiel 25, 7-O-(3,4-Di-O-acetyl-2,6-didesoxy-2-iodo-α-L-mannopyranosyl)-10-O-tetrahydropyranyl-β-rhodomycinon]
1h-Inkubation IC50 [5]: >1 µg/mL | Dauerinkubation IC50 [6]: >1 µg/mL

CC[C@@]1(O)C[C@H](O[C@H]2C[C@H](N)[C@H](O)[C@H](C)O2)c2c(O)c3c(c(O)c2[C@H]1O[C@H]1C=C[C@@H](O)[C@H](C)O1)C(=O)c1cccc(O)c1C3=O [Beispiel 42, 10-0-(2,3,6-Tridesoxy-α-L-erythro-hex-2-enopyranosyl)-7-0-α-L-daunosaminyl-β-rhodomycinon]
IC50 [2]: 0.16 µg/mL (≈ 0.255 µM) | IC50 [1]: > 1 µg/mL
